The target of data set [1] is Replicase polyprotein 1ab (Severe acute respiratory syndrome coronavirus 2) (UniProt P0DTD1). Conditions: time 30.0 min.
Data set [2] in a line: Kinetic solubility in phosphate buffer solution at pH 7.4. The class given is physicochemical. The note with it: read-out: Kinetic_solubility.
The nature of data set [3]: Metabolic stability in human liver microsomes assessed as intrinsic clearance. The class given is ADME, Microsome.
In another data set the test system is Vero C1008. The data set can be described thus: Cytotoxicity against african green monkey Vero E6 cells by CCK-8 assay. The class given is toxicity, cell-based. Conditions: chlorocebus sabaeus.
A short description of data set [4]: Plasma protein binding in human assessed as unbound fraction. The class given is ADME, cell-free.
Data set [5] in a line: Metabolic stability in human liver microsomes assessed as half life. The class given is ADME, Microsome.
The next data set has as its target Procathepsin L (Homo sapiens, UniProt P07711). In words: Inhibition of human Cathepsin L using fluorogenic substrate by FRET-based assay.
The target in another data set is Cathepsin D (Homo sapiens, UniProt P07339). In words: Inhibition of human Cathepsin D using fluorogenic substrate by FRET-based assay.
Sequence of Cathepsin D (P07339 65-162 limits assumed): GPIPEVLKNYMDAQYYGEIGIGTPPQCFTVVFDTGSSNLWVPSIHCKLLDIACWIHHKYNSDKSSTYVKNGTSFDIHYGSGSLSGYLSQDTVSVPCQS
Sequence of Cathepsin D (P07339 169-412 limits assumed): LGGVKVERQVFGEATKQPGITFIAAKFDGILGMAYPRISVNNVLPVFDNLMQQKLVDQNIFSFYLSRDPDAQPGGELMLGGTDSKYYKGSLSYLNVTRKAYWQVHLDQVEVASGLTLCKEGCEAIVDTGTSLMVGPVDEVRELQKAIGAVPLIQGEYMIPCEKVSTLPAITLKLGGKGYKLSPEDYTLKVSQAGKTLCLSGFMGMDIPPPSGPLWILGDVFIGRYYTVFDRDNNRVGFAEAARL
A further data set concerns the target Prothrombin (Homo sapiens, UniProt P00734). In words: Inhibition of human Thrombin using fluorogenic substrate by FRET-based assay.
A further data set addresses T1, Caspase-2 (Homo sapiens, UniProt P42575).
T1 sequence (P42575 whole entry): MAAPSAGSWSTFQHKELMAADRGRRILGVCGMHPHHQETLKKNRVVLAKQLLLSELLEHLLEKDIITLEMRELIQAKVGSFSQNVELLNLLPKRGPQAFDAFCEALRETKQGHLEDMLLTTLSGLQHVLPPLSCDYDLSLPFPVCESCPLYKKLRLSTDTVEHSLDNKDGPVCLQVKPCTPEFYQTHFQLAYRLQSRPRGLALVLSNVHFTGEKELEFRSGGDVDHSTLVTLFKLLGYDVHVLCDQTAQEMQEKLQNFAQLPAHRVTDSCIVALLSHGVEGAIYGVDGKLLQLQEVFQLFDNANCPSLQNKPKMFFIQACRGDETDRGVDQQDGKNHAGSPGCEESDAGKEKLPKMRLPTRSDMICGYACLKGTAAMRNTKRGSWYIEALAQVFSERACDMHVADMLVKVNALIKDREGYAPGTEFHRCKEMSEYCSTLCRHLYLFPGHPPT
The data set can be described thus: Inhibition of human Caspase 2 using fluorogenic substrate by FRET-based assay.

In another data set the target is Cathepsin B (Homo sapiens, UniProt P07858). In words: Inhibition of human Cathepsin B using fluorogenic substrate by FRET-based assay.

In brackets after ≈: the same amount, converted by molar mass. Activity calls are given as the source filed them. The calls are words filed in the database; no cut-off is given here. Where only a bound is given, the exact number is not on record here.

Sequence of Procathepsin L (P07711 whole entry): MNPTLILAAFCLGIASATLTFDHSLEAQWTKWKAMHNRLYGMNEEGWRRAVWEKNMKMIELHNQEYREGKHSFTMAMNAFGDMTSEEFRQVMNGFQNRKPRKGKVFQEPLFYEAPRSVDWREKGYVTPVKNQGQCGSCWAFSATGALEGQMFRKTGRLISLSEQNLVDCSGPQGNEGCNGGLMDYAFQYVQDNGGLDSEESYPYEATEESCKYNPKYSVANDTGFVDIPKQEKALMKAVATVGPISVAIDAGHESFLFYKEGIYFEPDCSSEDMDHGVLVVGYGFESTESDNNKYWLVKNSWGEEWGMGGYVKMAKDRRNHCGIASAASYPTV

In the case of `O=c1c2c(O)c(O)c(O)cc2nc(Cc2ccccc2)n1-c1ccccc1`, the inhibition result in [1] was “Active”.

As for `O=c1c2c(O)c(O)c(O)cc2nc(-c2ccccc2)n1C1CCCC1`, the inhibition entry in data set [1] is “Active”.

For the compound `CC(C)Cc1nc2cc(O)c(O)c(O)c2c(=O)n1-c1ccccc1`, the solubility kinetic in data set [2] was 156 µM (≈ 50.9 µg/mL). In addition, the inhibition result in data set [1] is “Active”. The CLH in data set [3] is 68.34 µL/min/mg. The same compound returned a CC50 in the data set with Vero C1008 of more than 50 µM. Also, the Fu in data set [4] was determined as 2.61%. For the same compound, the t1/2 in data set [5] came out at 20.28 min.

On to `Cc1cc(-n2c(CC(C)C)nc3cc(O)c(O)c(O)c3c2=O)ccc1F`, for which the inhibition entry in [1] is “Active”. For the same compound, the CC50 in the data set with Vero C1008 is more than 50 µM. Also, the Fu in data set [4] is 3.17%.

Regarding `O=c1c2c(O)c(O)c(O)cc2nc(-c2ccccc2)n1-c1ccccc1`, the IC50 against Procathepsin L, on Cathepsin D, against Prothrombin, at Caspase-2 and against Cathepsin B was more than 10 µM throughout. In addition, the solubility kinetic in data set [2] stood at 179 µM (≈ 62.1 µg/mL). Besides, the inhibition entry in data set [1] was “Active”. In [3], the CLH was found to be 108.68 µL/min/mg. This compound returned a CC50 in the data set with Vero C1008 of more than 50 µM. Also, the Fu in [4] worked out at 0.7%. The t1/2 in data set [5] came out at 12.75 min.

For `O=c1cc(-c2ccccc2)oc2cc(O)c(O)c(O)c12` [BAICALEIN], in [2], the solubility kinetic is 112 µM (≈ 30.3 µg/mL). Further, the CLH in data set [3] came to 333.05 µL/min/mg. Moreover, in the data set with Vero C1008, the CC50 was more than 50 µM. In data set [4], the Fu is on record as 0.93%. For the same compound, in data set [5], the t1/2 is given as 4.16 min.

(Values after ChEMBL document CHEMBL5335781, “Discovery of quinazolin-4-one-based non-covalent inhibitors targeting the severe acute respiratory syndrome coronavirus 2 main protease (SARS-CoV-2 Mpro)” (Eur J Med Chem, 2023).)
